Data published in patent US6117661A, “Mutant mono-oxygenase cytochrome P450cam” (BG plc, priority 1995, dated 2000).
Positions count from the first letter of the chain named. Names may count otherwise. Where two headings read alike, the source gives them in different places.

Tests used:
[1] = target: T1, Wild type P450cam (Pseudomonas putida, UniProt P00183); test: Substrate binding constant Kapp, method of Sligar; parameters: made in house; host or cells: E. coli JM109, vector pRH1091
Text: (§1) Binding of potential substrates was investigated by spectroscopic methods. […] This haem spin-state shift is accompanied by an increase in the haem reduction potential which enables the physiological electron-transfer partner putidaredoxin to reduce P-450cam and initiate the catalytic hydroxylation cycle^26. The haem spin state shift is thus a qualitative indication of the likelihood of molecules shown in Tables 1 and 2 being oxidised by the wild-type and mutant P-450cam enzymes.
(§2) ^a Values are the average of two independent measurements using the
(§3) method of Sligar (S. G. Sligar, Biochemistry, 1976, 15, 5399-5406). The
(§4) value of Kapp is strongly dependent on the concentration of K^+
(§5) in the buffer. At [K^+ ] > 150 mM, Kapp for camphor is 0.6 μM
(§6) for both wildtype and Y96A. Data in this table were determined at [K^
(§7) ] = 70 mM in phosphate buffer, pH 7.4, in order to avoid # salting out o
(§8) substrates at higher ion concentrations.

[2] = target: T1, Wild type P450cam; type: binding, P. putida
[3] = target: T2, P-450cam mutant Y96A (Pseudomonas putida, UniProt P00183, Y97A); test: Substrate binding constant Kapp, method of Sligar
T2 construct: made in house; host or cells: E. coli JM109, vector pRH1091
Text: as §1, §2, §3, §4, §5, §6, §7, §8

[4] = target: T3, P450cam active site mutant F87A-F96G-F193A (Pseudomonas putida, UniProt P00183, C335A/F194A/F88A/Y97G); type: biochemical, P. putida; details: for Products (%) F87A-F96G-F193A: label = product
T3 construct: reconstituted with putidaredoxin and putidaredoxin reductase
Method: (§9) A buffered solution (50 mM Tris.HCI, pH 7.4), typically 3 ml in volume, containing 10 uM putidaredoxin, 2 uM putidaredoxin reductase, 1 uM cytochrome P-450cam mono-oxygenase (wild-type or mutant), 200 mM KCI, 50 ug/ml bovine liver catalase (Sigma), and 1 mM target organic compound such as cyclohexylbenzene (added as a 0.1 M stock in ethanol) was preincubated at 30° C. for 5 minutes. The enzymatic reaction was initiated by adding NADH to a total concentration of 2 mM. Further four aliquots of NADH (to increase the NADH concentration by 1 mM each time) were added in intervals of 10 minutes, and 30 minutes into the incubation one aliquot of substrate (to increase the concentration by 1 mM) was also added. The reaction was quenched after 60 minutes by adding 0.5 ml chloroform and vortexing the mixture. The phases were separated by centrifugation (4000 g) at 4° C. The chloroform layer was analyzed by gas chromatography.
(§10) For many substrate compounds such as cyclohexylbenzene for which not all the P-450cam-mediated oxidation products are commercially available, the chloroform extracts are evaporated to dryness under a stream of nitrogen. The residues were extracted with hexane and the oxidation products separated by high performance liquid chromatography, eluting with a hexane/isopropanol gradient. The purified products were then identified by mass spectroscopy and particularly nuclear magnetic resonance spectroscopy.
(§11) The NADH concentration can be monitored at 340 nm and, in all cases, more substrates and NADH are added during the incubation.

[5] = target: T4, P450cam active site mutant Y96F (also C334A) (Pseudomonas putida, UniProt P00183, C335A/Y97F); type: biochemical, P. putida; details: for Products(%) Y96F: label = product
T4 construct: reconstituted with putidaredoxin and putidaredoxin reductase
Method: as §9, §10, §11

[6] = target: T5, P450cam active site mutant Y96V (also C334A) (Pseudomonas putida, UniProt P00183, C335A/Y97V); type: biochemical, P. putida; details: for Products (%) Y96V: label = product
T5 construct: reconstituted with putidaredoxin and putidaredoxin reductase
Method: as §9, §10, §11

[7] = target: T6, P450cam active site mutant Y96A (also C334A) (Pseudomonas putida, UniProt P00183, C335A/Y97A); type: biochemical, P. putida; details: for Products(%) Y96A: label = product
T6 construct: reconstituted with putidaredoxin and putidaredoxin reductase
Method: as §9, §10, §11

[8] = target: T7, P450cam active site mutant Y96L (also C334A) (Pseudomonas putida, UniProt P00183, C335A/Y97L); type: biochemical, P. putida; details: for Products (%) Y96L: label = product
T7 construct: reconstituted with putidaredoxin and putidaredoxin reductase
Method: as §9, §10, §11

[9] = target: T8, P450cam WT (Pseudomonas putida, UniProt P00183); test: Product distribution following oxidation of substrates (GC); type: biochemical, P. putida; details: for Products (%) WT: label = product
T8 construct: reconstituted with putidaredoxin and putidaredoxin reductase
Method: as §9, §10, §11

[10] = target: P450cam Mutant Y96A (Pseudomonas putida, UniProt P00183, C335A/Y97A); type: binding, P. putida
[11] = Protein aggregation upon standing/storage; type: physicochemical
Text: The C334A mutation has the obvious benefit of removing unwanted protein dimerisation, thus ensuring the presence of a single species in solution at all times. In addition, we noted a completely unexpected benefit of this mutation. […] Aggregation will also occur during turnover, especially at the higher P-450cam concentrations required in any economically viable industrial application in, for example, synthesis of organic molecules. […] Thus, the C334A mutation has beneficial effects in protein handling, storage, and increased catalyst lifetime.

[12] = Protein dimerisation by anion exchange FPLC and gel filtration; type: physicochemical; details: Resource Q FPLC and Superose 12 gel filtration; C334A even at high concentrations (0.1 mM range)
Text: We concluded that wild-type P-450cam underwent dimerisation by intermolecular S--S disulphide bond formation between the surface cysteine 334 on two protein molecules.

[13] = -- = no shift, nd = not determined

Question: For `CC12CCC(CC1=O)C2(C)C` (single isomer, unassigned) [camphor], which Kd [1] is on record?
Answer: 600 nM

Question: What about the “haem spin-state conversion on substrate binding” value ([2]; Soret band 418 nm to 392 nm) of the same molecule?
Answer: fully converted the haem to the 5-co-ordinated, high-spin form

Question: And the Kd [3]?
Answer: 600 nM

Question: For `Oc1cccc2ccccc12` [1-ol], which “Products (%) F87A-F96G-F193A” value ([4]; substrate naphthalene) is on record?
Answer: 100%

Question: What about the “Products(%) Y96F” value ([5]; substrate naphthalene) of the same molecule?
Answer: 100%

Question: And the “Products (%) Y96V” value ([6]; substrate naphthalene)?
Answer: 100%

Question: And the “Products(%) Y96A” value ([7]; substrate naphthalene)?
Answer: 100%

Question: And the “Products (%) Y96L” value ([8]; substrate naphthalene)?
Answer: 100%

Question: And the “Products (%) WT” value ([9]; substrate naphthalene)?
Answer: 100%

Question: Which “Products (%) F87A-F96G-F193A” value ([4]; substrate naphthalene) does the source give for `Oc1ccc2ccccc2c1` [2-ol] here?
Answer: 0%

Question: And the “Products(%) Y96F” value ([5]; substrate naphthalene)?
Answer: 0%

Question: What about the “Products (%) Y96V” value ([6]; substrate naphthalene) of the same molecule?
Answer: 0%

Question: And the “Products(%) Y96A” value ([7]; substrate naphthalene)?
Answer: 0%

Question: And the “Products (%) Y96L” value ([8]; substrate naphthalene)?
Answer: 0%

Question: And the “Products (%) WT” value ([9]; substrate naphthalene)?
Answer: 0%

Question: For `c1ccc2c(c1)-c1cccc3cccc-2c13` [Fluoranthene], which “Total products F87A-F96G-F193A” value ([4]; substrate fluoranthene) is on record?
Answer: 0.2 area/10^6

Question: What about the “Total products Y96A” value ([7]; substrate fluoranthene) of the same molecule?
Answer: 2.7 area/10^6

Question: What about the “Mutant Y96A Vs DTT” value [10] of the same molecule?
Answer: 10

Question: What about the “Mutant Y96A ΔSpin high/low” value [10] of the same molecule?
Answer: 20

Question: And the “Wild type Vs DTT” value [2]?
Answer: 5

Question: What about the “Total products WT” value ([9]; substrate fluoranthene) of the same molecule?
Answer: 0 area/10^6

Question: Which results are given for `c1ccc2ccccc2c1` [Naphthalene]?
Answer: Total products F87A-F96G-F193A ([4]; substrate naphthalene): 0.1 area/10^5; Total products Y96F ([5]; substrate naphthalene): 2.4 area/10^5; Total products Y96V ([6]; substrate naphthalene): 1.4 area/10^5; Total products Y96A ([7]; substrate naphthalene): 1.1 area/10^5; Total products Y96L ([8]; substrate naphthalene): 0.7 area/10^5; Mutant Y96A Vs DTT [10]: 20; Mutant Y96A ΔSpin high/low [10, 13]: 15; Total products WT ([9]; substrate naphthalene): 0.016 area/10^5

Question: Which results are given for `c1ccc2c(c1)ccc1ccccc12` [Phenanthrene]?
Answer: Total products F87A-F96G-F193A ([4]; substrate phenanthrene): 0.065 area/10^6; Total products Y96F ([5]; substrate phenanthrene): 4.5 area/10^6; Total products Y96V ([6]; substrate phenanthrene): 1.6 area/10^6; Total products Y96A ([7]; substrate phenanthrene): 7.0 area/10^6; Total products Y96L ([8]; substrate phenanthrene): 2.8 area/10^6; Mutant Y96A Vs DTT [10]: 20; Mutant Y96A ΔSpin high/low [10, 13]: 20; Total products WT ([9]; substrate phenanthrene): 0.075 area/10^6

Question: What does the source list for `c1cc2ccc3cccc4ccc(c1)c2c34` [Pyrene]?
Answer: Total products F87A-F96G-F193A ([4]; substrate pyrene): 0.02 area/10^6; Total products Y96F ([5]; substrate pyrene): 1.5 area/10^6; Total products Y96V ([6]; substrate pyrene): 1.6 area/10^6; Total products Y96A ([7]; substrate pyrene): 1.2 area/10^6; Total products Y96L ([8]; substrate pyrene): 1.5 area/10^6; Total products WT ([9]; substrate pyrene): 0 area/10^6

B1: C148A: P-450cam surface mutant, cysteine 148 substituted to alanine (protein, UniProt P00183 2-415, looked up, variant C148A)
Camphor 5-monooxygenase: TTETIQSNANLAPLPPHVPEHLVFDFDMYNPSNLSAGVQEAWAVLQESNVPDLVWTRCNGGHWIATRGQLIREAYEDYRHFSSECPFIPREAGEAYDFIPTSMDPPEQRQFRALANQVVGMPVVDKLENRIQELACSLIESLRPQGQANFTEDYAEPFPIRIFMLLAGLPEEDIPHLKYLTDQMTRPDGSMTFAEAKEALYDYLIPIIEQRRQKPGTDAISIVANGQVNGRPITSDEAKRMCGLLLVGGLDTVVNFLSFSMEFLAKSPEHRQELIERPERIPAACEELLRRFSLVADGRILTSDYEFHGVQLKKGDQILLPQMLSGLDERENACPMHVDFSRQKVSHTTFGHGSHLCLGQHLARREIIVTLKEWLTRIPDFSIAPGAQIQHKSGIVSGVQALPLVWDPATTKAV
Question: What does the source list for B1?
Answer: dimerisation and aggregation upon storage ([11]; storage at 4° C., and even in 50% glycerol solutions at -20° C.): dimerisation as well as aggregation; presence of protein dimer [12]: dimer was detected

B2: C334A: P-450cam surface mutant, cysteine 334 substituted to alanine (protein, UniProt P00183 2-415, looked up, variant C334A)
Camphor 5-monooxygenase: B1 Camphor 5-monooxygenase with A148C, C334A
Question: For B2, which aggregation ([11]; mM concentrations at room temperature over a period of three days) is on record?
Answer: did not show any evidence of aggregation

Question: And the “presence of protein dimer” value [12]?
Answer: no dimer was detected
